From patent US7064236B2, “Substituted 1-aryl-but-3-enylamine and 1-aryl-but-2-enylamine compounds” (Grunenthal GmbH, priority 2001, dated 2006)
Counter-ions that a name gives are not always drawn.

System: phenylquinone-induced writhing in mice
Assay: Analgesic testing by phenylquinone-induced writhing test in mice
Assay type: in vivo, mouse (male NMRI mice)
Settings: 10 min, mouse, phenylquinone i.p. 10 minutes after compound, read-out: % Inhibition of writhing reaction; for inhibition in vivo at 10 mg/kg: 10 mg/kg intravenous
Protocol: Analgesic Testing by Writhing Test in Mice
The investigation into analgesic efficacy was performed by phenylquinone-induced writhing in mice (modified after: I. C. Hendershot and J. Forsaith (1959) J. Pharmacol. Exp. There. 125, 237–240). Male NMRI mice weighing from 25–30 g were used for this purpose. 10 minutes after intravenous administration of the test compounds, groups of 10 animals per dose of a compound received 0.3 ml/mouse of a 0.02% aqueous solution of phenylquinone (phenylbenzoquinone, sigma, Deisenhofen; production of the solution with addition of 5% ethanol and storage in water bath at 45° C.), administered intraperitoneally. The animals were placed individually in observation cages. A push button counter was used to record the number of pain-induced stretching movements (writhing reactions=straightening of the torso with stretching of the rear extremities) for 5–20 minutes after phenylquinone administration. The control was provided by animals who received only physiological common salt solution. All the compounds were tested at the standard dosage of 10 mg/kg. The percentage inhibition (%inhibition) of the writhing reaction by a compound of the general formula I according to the invention was calculated according to the following formula: […]
The in-depth investigation of the compounds of the general formula I according to the invention for analgesic efficacy was performed by phenylquinone-induced writhing in mice, as described above.

## CN(C)C(C1=C(Cc2ccccc2F)CCCC1)c1ccccc1 (stereo not drawn) [Example 19, {[2-(2-Fluoro-benzyl)-cyclohex-1-enyl)-phenyl-methyl}-dimethyl-amine hydrochloride]
  inhibition in vivo at 10 mg/kg: 87%

## CN(C)C(C1=C(Cc2ccccc2Cl)CCCC1)c1ccccc1 (stereo not drawn) [Example 20, {[2-(2-Chloro-benzyl)-cyclohex-1-enyl]-phenyl-methyl}-dimethyl-amine hydrochloride]
  inhibition in vivo at 10 mg/kg: 63%

## CN(C)C(C1=C(Cc2cccc(F)c2)CCCC1)c1ccccc1 (stereo not drawn) [Example 21, {[2-(3-Fluoro-benzyl)-cyclohex-1-enyl)-phenyl-methyl}-dimethyl-amine hydrochloride]
  inhibition in vivo at 10 mg/kg: 67%

## CN(C)C(C1=C(Cc2cccc(C(F)(F)F)c2)CCCC1)c1ccccc1 (stereo not drawn) [Example 22, Dimethyl-{phenyl-[2-(3-trifluoromethyl-benzyl)-cyclohex-1-enyl]-methyl}-amine hydrochloride]
21.5 mg/kg intravenous
  inhibition in vivo at 21.5 mg/kg: 46%

## CN(C)C(C1=C(CCc2ccccc2)CCCC1)c1ccccc1 (stereo not drawn) [Example 23, Dimethyl-[(2-phenethyl-cyclohex-1-enyl)-phenyl-methyl]-amine hydrochloride]
  inhibition in vivo at 10 mg/kg: 67%

## CN(C)C(c1ccccc1)C1CCCC=C1c1cccc(O)c1 (stereo not drawn) [Example 24, 3-[6-(dimethylamino-phenyl-methyl)-cyclohex-1-enyl]-phenol hydrochloride]
  inhibition in vivo at 10 mg/kg: 76%

## COc1ccc(C2=CCCCC2C(c2ccccc2)N(C)C)cc1 (stereo not drawn) [Example 27, {[2-(4-methoxy-phenyl)-cyclohex-2-enyl]-phenyl-methyl}-dimethylamine hydrochloride]
  inhibition in vivo at 10 mg/kg: 47%

## CN(C)C(C1=C(c2ccc(Cl)cc2)CCCC1)c1ccccc1 (stereo not drawn) [Example 28, {[2-(4-Chloro-phenyl)-cyclohex-1-enyl]-phenyl-methyl}-dimethyl-amine hydrochloride]
  inhibition in vivo at 10 mg/kg: 71%

## CN(C)C(C1=C(c2ccccc2)CCCC1)c1ccc(C(F)(F)F)cc1 (stereo not drawn) [Example 29, Dimethyl-[(2-phenyl-cyclohex-1-enyl)-(4-trifluoromethyl-phenyl)-methyl]-amine hydrochloride]
  inhibition in vivo at 10 mg/kg: 40%
